From ChEMBL document CHEMBL3085753, “Bridged tricyclic sesquiterpenes from the tubercle nudibranch Phyllidia coelestis Bergh” (J Nat Prod, 2013)

Legend:
KB = assay: Antiproliferative activity against human KB cells by SRB assay; assay type: functional, cell-based
HT-29 [1] = assay: Antiproliferative activity against human HT-29 cells at 20 uM by SRB assay; assay type: functional
[2] = Cytotoxicity against human Gingival fibroblasts at 20 uM by SRB assay; set-up: species or system Gingival fibroblast; details: read-out: INH
HeLa = assay: Antiproliferative activity against human HeLa cells by SRB assay; assay type: functional, cell-based
MCF7 = assay: Antiproliferative activity against human MCF7 cells by SRB assay; assay type: functional, cell-based
HT-29 [3] = assay: Antiproliferative activity against human HT-29 cells by SRB assay; assay type: functional, cell-based

| IC50 (KB) | IC50 (HeLa) | IC50 (MCF7) | SMILES | inhibition at 20 µM (HT-29 [1]) | cytotoxicity at 20 µM [2] | IC50 (HT-29 [3]) |
| --- | --- | --- | --- | --- | --- | --- |
| 1200 nM | 70 nM | 8200 nM | CC(C)[C@@H]1C[C@@]2(C)[C@@H]3CC[C@@](C)(C[C@@H]31)[C@@H]2NC=O (relative stereo) | 35% | 25% | – |
| 2400 nM | 130 nM | 650 nM | CC(C)[C@@H]1C[C@@]2(C)[C@@H]3CC[C@](C)(NC=O)[C@H]2C[C@@H]31 (relative stereo) | – | 65% | 6800 nM |

| SMILES | IC50 (KB) | IC50 (HeLa) | IC50 (MCF7) | inhibition at 20 µM (HT-29 [1]) | cytotoxicity at 20 µM [2] | IC50 (HT-29 [3]) |
| --- | --- | --- | --- | --- | --- | --- |
| CC[C@@]1(O)C(=O)OCc2c1cc1n(c2=O)Cc2cc3ccccc3nc2-1 [CAMPTOTHECIN] | 20 nM | 130 nM | 3.3 nM | – | – | 0.7 nM |
